Consider three molecules from ChEMBL document CHEMBL5725762, “Tetracyclic pyridone compounds as antivirals” (2018).

Structures are written as SMILES.

A short description of this experiment: HBSAg ELISA assay: HepG2-Clone42 cells were seeded in into black clear-bottom 96-well plates at a concentration of 6.0×10^4 cells/well. 24 hours post-seeding, the cells were treated with 200 μl/well of media containing five-fold serial dilutions of compounds in DMSO. DMSO alone was used as the no drug control. The final DMSO concentration in all wells was 0.5%. The HBsAg ELISA kit (Alpha Diagnostic International, San Antonio, Tex., USE, Catalog #4110) was used to determine the level (semi-quantitative) of secreted HBV sAg. (An ELISA detects its analyte on a solid surface through an enzyme-linked reagent.)
A word on the EC50: it is the midpoint of the concentration-response curve. `COCCCOc1cc2c(cc1OC)-c1c(F)c(=O)c(C(=O)O)cn1C1[C@@H]2OCC1(C)C` (stereo partly drawn) displayed an EC50 of 0.8 nM. With `COCCCOc1cc2c(cc1Cl)-c1cc(=O)c(C(=O)O)cn1[C@H]1[C@@H]2CCC1(C)C` the figure was 0.1 nM; with `COCCCOc1cc2c(cc1OC)-c1cc(=O)c(C(=O)O)cn1C1[C@@H]2COC1(C)C` (stereo partly drawn), 1 nM.
